pEC50: −log10 of the molar value.

Common to all, as to assay: EC50 assay: Ba/F3 stable cell proliferation (CCK-8, 72 h)
What all share (assay type): cell-based

The target of assay [1] is T1, Ba/F3 stable cells (Homo sapiens, UniProt P04626, DUP772-775, cells depend on it).
T1 construct: EC50 Ba/F3-HER2 A775-G776insYVMA; other: Ba/F3-HER2 A775-G776insYVMA cells, 72 h, CCK-8
As to conditions: Ba/F3-HER2 A775-G776insYVMA cells. In outline:
(§1)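 Ba/F3 stable cells were seeded at 4,000 cells/90 μL/well in 96-well plates and held 2 h at 37° C. in 5% CO2, then given 10 μL of serially titrated compound (0.1% DMSO final). After 72 h at 37° C., CCK-8 reagent was added for 4 hours and absorbance read at 450 nm to derive EC50.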

Assay [2] deals with T2, Ba/F3 stable cells (Homo sapiens, UniProt P00533, DUP767-769, cells depend on it).
T2 construct: EC50 Ba/F3-EGFR V769-D770insASV; other: Ba/F3-EGFR V769-D770insASV cells, 72 h, CCK-8
As to conditions: Ba/F3-EGFR V769-D770insASV cells. In outline: as §1

Assay [3] has as its target T3, Ba/F3 stable cells (Homo sapiens, UniProt P00533, DUP771-773, cells depend on it).
T3 construct: EC50 Ba/F3-EGFR H773-V774insNPH; other: Ba/F3-EGFR H773-V774insNPH cells, 72 h, CCK-8
As to conditions: Ba/F3-EGFR H773-V774insNPH cells. In outline: as §1

Assay [4] addresses T4, Ba/F3 stable cells (Homo sapiens, UniProt P00533, DUP768-770, cells depend on it).
T4 construct: EC50 Ba/F3-EGFR D770-N771insSVD; other: Ba/F3-EGFR D770-N771insSVD cells, 72 h, CCK-8
As to conditions: Ba/F3-EGFR D770-N771insSVD cells. In outline: as §1

Assay [5] concerns the target T5, Ba/F3 stable cells (Homo sapiens, UniProt P00533, T790M/L858R, cells depend on it).
T5 construct: EC50 Ba/F3-EGFR L858R-T790M; other: Ba/F3-EGFR L858R-T790M cells, 72 h, CCK-8
As to conditions: Ba/F3-EGFR L858R-T790M cells. In outline:
as §1

Assay [6] concerns the target T6, Ba/F3 stable cells (Homo sapiens, UniProt P00533, INS763FQEA, cells depend on it).
T6 construct: EC50 Ba/F3-EGFR A763-Y764insFQEA; other: Ba/F3-EGFR A763-Y764insFQEA cells, 72 h, CCK-8
As to conditions: Ba/F3-EGFR A763-Y764insFQEA cells. In outline:
as §1

T3 sequence (P00533 with tags, fused parts or gaps DUP771-773): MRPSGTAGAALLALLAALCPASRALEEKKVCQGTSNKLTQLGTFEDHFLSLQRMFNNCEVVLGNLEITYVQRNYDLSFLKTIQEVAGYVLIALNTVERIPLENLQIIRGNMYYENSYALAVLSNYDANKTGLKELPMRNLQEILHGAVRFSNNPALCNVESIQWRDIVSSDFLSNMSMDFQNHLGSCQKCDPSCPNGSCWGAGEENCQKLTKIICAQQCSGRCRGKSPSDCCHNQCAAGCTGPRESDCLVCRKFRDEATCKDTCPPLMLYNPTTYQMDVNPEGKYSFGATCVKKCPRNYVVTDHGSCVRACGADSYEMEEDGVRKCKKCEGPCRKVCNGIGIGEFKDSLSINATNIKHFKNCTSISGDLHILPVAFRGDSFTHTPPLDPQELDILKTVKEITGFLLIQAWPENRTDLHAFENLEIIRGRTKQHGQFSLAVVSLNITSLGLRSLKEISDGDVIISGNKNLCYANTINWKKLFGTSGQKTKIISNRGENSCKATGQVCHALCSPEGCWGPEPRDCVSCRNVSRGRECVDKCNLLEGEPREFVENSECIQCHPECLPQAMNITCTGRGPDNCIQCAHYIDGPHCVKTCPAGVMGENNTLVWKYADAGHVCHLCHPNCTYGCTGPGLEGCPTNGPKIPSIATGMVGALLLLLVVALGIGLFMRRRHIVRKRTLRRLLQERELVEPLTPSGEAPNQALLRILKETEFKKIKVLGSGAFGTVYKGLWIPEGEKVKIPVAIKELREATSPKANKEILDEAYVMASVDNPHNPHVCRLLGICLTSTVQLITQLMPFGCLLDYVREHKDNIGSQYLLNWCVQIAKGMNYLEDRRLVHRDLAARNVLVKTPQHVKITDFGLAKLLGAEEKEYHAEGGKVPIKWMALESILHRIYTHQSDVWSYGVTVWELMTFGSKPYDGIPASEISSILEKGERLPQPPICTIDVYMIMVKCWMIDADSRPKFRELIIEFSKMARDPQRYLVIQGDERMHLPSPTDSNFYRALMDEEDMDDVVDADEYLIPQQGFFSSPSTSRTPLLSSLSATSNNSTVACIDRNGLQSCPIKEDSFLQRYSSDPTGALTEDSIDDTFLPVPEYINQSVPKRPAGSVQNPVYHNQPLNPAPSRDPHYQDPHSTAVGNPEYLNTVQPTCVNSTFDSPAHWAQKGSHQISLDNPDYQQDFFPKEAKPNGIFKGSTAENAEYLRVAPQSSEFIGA
T1 sequence (P04626 with tags, fused parts or gaps DUP772-775): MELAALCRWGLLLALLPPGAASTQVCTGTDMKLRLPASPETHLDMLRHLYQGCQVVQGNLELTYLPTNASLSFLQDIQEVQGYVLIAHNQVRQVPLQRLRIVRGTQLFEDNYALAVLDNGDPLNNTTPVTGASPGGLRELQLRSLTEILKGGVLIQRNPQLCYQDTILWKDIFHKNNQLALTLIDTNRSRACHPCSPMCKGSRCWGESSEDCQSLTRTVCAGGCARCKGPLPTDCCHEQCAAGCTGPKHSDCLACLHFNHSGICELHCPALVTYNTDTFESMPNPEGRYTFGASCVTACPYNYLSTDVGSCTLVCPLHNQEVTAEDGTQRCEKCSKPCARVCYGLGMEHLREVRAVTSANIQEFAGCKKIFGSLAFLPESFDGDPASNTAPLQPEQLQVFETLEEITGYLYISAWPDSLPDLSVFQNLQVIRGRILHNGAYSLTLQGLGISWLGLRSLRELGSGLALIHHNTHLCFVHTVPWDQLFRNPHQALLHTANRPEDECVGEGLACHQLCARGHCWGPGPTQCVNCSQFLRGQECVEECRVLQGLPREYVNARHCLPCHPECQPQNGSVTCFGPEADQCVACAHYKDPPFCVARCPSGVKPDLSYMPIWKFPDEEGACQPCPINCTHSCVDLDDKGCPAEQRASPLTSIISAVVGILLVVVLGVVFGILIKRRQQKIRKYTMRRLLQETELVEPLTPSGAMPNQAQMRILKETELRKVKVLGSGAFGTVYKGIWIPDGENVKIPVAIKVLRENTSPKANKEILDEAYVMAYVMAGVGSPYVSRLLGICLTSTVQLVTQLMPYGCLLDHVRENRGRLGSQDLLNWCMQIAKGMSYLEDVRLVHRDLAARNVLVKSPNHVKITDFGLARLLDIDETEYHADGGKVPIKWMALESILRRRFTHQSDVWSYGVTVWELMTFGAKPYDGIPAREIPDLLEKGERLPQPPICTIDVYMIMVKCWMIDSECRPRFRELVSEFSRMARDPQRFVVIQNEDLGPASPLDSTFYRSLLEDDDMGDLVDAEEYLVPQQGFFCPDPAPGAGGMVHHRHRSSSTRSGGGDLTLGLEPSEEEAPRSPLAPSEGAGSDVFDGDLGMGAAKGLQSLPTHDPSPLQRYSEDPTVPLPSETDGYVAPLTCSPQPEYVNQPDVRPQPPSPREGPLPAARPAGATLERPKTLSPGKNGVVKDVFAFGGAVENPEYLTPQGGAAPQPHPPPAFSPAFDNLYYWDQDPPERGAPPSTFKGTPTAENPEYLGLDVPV
T5 sequence (P00533 whole entry T790M/L858R): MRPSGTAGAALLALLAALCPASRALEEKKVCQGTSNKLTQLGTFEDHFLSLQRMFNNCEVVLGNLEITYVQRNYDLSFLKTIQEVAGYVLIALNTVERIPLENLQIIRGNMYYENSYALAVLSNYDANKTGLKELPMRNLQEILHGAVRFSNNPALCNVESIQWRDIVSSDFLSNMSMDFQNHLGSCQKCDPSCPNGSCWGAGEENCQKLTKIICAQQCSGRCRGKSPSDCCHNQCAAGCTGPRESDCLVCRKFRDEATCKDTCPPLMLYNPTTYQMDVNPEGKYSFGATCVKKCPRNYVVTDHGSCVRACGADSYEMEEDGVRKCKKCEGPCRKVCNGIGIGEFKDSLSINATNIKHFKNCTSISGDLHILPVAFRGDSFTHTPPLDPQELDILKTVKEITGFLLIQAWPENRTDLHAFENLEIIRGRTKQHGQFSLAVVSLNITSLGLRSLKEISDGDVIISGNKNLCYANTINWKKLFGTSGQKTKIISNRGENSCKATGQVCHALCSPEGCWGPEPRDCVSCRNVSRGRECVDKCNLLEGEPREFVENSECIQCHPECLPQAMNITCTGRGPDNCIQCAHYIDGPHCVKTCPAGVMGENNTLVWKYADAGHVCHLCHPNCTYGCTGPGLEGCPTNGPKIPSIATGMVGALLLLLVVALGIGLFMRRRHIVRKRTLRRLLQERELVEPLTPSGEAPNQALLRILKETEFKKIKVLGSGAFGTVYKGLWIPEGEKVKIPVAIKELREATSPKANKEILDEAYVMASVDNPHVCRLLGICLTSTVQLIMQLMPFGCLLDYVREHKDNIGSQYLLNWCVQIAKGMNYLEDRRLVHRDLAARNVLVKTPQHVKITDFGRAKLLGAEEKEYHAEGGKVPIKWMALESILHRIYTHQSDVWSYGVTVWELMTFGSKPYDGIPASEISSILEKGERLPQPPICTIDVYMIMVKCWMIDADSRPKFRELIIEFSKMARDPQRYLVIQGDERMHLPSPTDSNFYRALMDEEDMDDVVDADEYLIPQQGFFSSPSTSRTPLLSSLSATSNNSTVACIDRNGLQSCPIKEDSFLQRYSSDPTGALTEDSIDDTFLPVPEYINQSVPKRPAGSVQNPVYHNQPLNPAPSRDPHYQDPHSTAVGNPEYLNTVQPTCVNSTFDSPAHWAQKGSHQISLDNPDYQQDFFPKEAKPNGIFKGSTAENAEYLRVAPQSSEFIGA
T6 sequence (P00533 with tags, fused parts or gaps INS763FQEA): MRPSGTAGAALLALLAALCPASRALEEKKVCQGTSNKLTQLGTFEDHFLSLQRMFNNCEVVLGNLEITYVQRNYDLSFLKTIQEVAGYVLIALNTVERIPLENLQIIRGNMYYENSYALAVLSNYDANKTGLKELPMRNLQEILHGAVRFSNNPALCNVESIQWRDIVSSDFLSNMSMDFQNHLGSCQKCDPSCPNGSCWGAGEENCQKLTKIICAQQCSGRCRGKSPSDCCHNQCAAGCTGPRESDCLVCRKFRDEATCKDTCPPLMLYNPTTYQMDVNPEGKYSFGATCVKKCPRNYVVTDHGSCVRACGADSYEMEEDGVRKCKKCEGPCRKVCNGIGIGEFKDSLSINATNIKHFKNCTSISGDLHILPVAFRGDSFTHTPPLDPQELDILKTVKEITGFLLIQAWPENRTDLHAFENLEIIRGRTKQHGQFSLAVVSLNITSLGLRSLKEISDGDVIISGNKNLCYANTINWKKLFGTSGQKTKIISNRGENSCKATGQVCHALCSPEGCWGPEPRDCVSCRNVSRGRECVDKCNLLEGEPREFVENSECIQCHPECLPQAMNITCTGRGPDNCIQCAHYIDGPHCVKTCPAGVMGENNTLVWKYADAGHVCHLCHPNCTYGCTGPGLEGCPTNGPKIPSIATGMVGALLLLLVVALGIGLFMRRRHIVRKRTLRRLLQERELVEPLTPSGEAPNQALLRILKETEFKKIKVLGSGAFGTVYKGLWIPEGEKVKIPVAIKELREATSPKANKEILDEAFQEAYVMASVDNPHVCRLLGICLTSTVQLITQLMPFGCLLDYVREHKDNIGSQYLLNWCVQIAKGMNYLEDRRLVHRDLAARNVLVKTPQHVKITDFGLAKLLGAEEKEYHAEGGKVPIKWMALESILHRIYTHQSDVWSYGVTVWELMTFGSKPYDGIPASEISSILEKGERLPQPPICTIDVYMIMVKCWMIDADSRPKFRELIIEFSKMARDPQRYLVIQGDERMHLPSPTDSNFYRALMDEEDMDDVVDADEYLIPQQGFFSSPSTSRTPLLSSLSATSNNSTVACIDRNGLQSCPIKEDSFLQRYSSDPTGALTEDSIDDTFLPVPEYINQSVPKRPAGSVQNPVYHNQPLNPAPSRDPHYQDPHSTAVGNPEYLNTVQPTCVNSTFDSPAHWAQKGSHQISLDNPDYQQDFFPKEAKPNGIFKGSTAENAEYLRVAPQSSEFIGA

What is called pEC50 is −log10 of the EC50, conventionally taken in molar units. Consider `C=CC(=O)N1CCC(Oc2cc3c(Nc4cccc5[nH]ccc45)ncnc3cc2OC)CC1` [Compound 165, 1-(4-((4-((1H-indol-4-yl)amino)-7-methoxyquinazolin-6-yl)oxy)piperidin-1-yl)prop-2-en-1-one], for which the pEC50 in assay [1] was below 6.00; in assay [2] it was 6.00 to 6.70; in assay [3], 6.00 to 6.70; in assay [4] it was below 6.00; in assay [5], 6.00 to 6.70; in assay [6], at least 6.70.
As to `C=CC(=O)N1CCC(Oc2cc3c(Nc4cccc5cc[nH]c45)ncnc3cc2OC)CC1` [Compound 166, 1-(4-((4-((1H-indol-7-yl)amino)-7-methoxyquinazolin-6-yl)oxy)piperidin-1-yl)prop-2-en-1-one], the pEC50 was at least 6.70 in assay [1]; at least 6.70 in assay [2]; at least 6.70 in assay [3]; below 6.00 in assay [4]; 6.00 to 6.70 in assay [5]; at least 6.70 in assay [6].
`C=CC(=O)N1CCC(Oc2cc3c(Nc4ccc(C)c5ccccc45)ncnc3cc2OC)CC1` [Compound 167, 1-(4-((7-methoxy-4-((4-methylnaphthalen-1-yl)amino)quinazolin-6-yl)oxy)piperidin-1-yl)prop-2-en-1-one]: the pEC50 in assay [1] was 6.00 to 6.70; in assay [2] it was 6.00 to 6.70; in assay [3], 6.00 to 6.70; in assay [4] it was below 6.00; in assay [5], at least 6.70; in assay [6], at least 6.70.
Take `C=CC(=O)N1CCC(Oc2cc3c(Nc4ccc5c(c4)CCN5)ncnc3cc2OC)CC1` [Compound 168, 1-(4-((4-(indolin-5-ylamino)-7-methoxyquinazolin-6-yl)oxy)piperidin-1-yl)prop-2-en-1-one]: the pEC50 in assay [1] was at least 6.70; in assay [2], at least 6.70; in assay [3], at least 6.70; in assay [4], 6.00 to 6.70; in assay [5] it was below 6.00; in assay [6], at least 6.70.
With `C=CC(=O)N1CCC(Oc2cc3c(Nc4ccc5[nH]ccc5c4)ncnc3cc2OC)CC1` [Compound 169, 1-(4-((4-((1H-indol-5-yl)amino)-7-methoxyquinazolin-6-yl)oxy)piperidin-1-yl)prop-2-en-1-one], the pEC50 was at least 6.70 in assay [1]; at least 6.70 in assay [2]; at least 6.70 in assay [3]; 6.00 to 6.70 in assay [4]; 6.00 to 6.70 in assay [5]; at least 6.70 in assay [6].
`C=CC(=O)N1CCC(Oc2cc3c(Nc4ccc5c(ccn5C)c4)ncnc3cc2OC)CC1` [Compound 170, 1-(4-((7-methoxy-4-((1-methyl-1H-indol-5-yl)amino)quinazolin-6-yl)oxy)piperidin-1-yl)prop-2-en-1-one]: the pEC50 in assay [1] is 6.00 to 6.70; in assay [2], 6.00 to 6.70; in assay [3] it was 6.00 to 6.70; in assay [4], below 6.00; in assay [5], at least 6.70; in assay [6], at least 6.70.
Regarding `C=CC(=O)N1CCC(Oc2cc3c(NCc4ccc(F)cc4)ncnc3cc2OC)CC1` [Compound 172, 1-(4-((4-((4-fluorobenzyl)amino)-7-methoxyquinazolin-6-yl)oxy)piperidin-1-yl)prop-2-en-1-one], the pEC50 was at least 6.70 in assay [1]; at least 6.70 in assay [2]; 6.00 to 6.70 in assay [3]; 6.00 to 6.70 in assay [4]; below 6.00 in assay [5]; at least 6.70 in assay [6].
As to `C=CC(=O)N1CCC(Oc2cc3c(N[C@H](C)c4ccc(F)cc4)ncnc3cc2OC)CC1` [Compound 173, (R)-1-(4-((4-((1-(4-fluorophenyl)ethyl)amino)-7-methoxyquinazolin-6-yl)oxy)piperidin-1-yl)prop-2-en-1-one], the negative-log EC50 (pEC50) was below 6.00 in assay [1]; at least 6.70 in assay [2]; 6.00 to 6.70 in assay [3]; below 6.00 in assay [4]; below 6.00 in assay [5]; at least 6.70 in assay [6].
On to `C=CC(=O)N1CCC(Oc2cc3c(C(=O)c4ccc(OC)cc4)ncnc3cc2OC)CC1` [Compound 174, 1-(4-((7-methoxy-4-(4-methoxybenzoyl)quinazolin-6-yl)oxy)piperidin-1-yl)prop-2-en-1-one], for which the pEC50 in assay [1], in assay [2], in assay [3], in assay [4], in assay [5] and in assay [6] was below 6.00 throughout.
`C=CC(=O)N1CCC(Oc2cc3c(C(=O)c4ccc(Cl)c(Cl)c4F)ncnc3cc2OC)CC1` [Compound 175, 1-(4-((4-(3,4-dichloro-2-fluorobenzoyl)-7-methoxyquinazolin-6-yl)oxy)piperidin-1-yl)prop-2-en-1-one]: the pEC50 in assay [1] was 6.00 to 6.70; in assay [2], at least 6.70; in assay [3] it was at least 6.70; in assay [4], 6.00 to 6.70; in assay [5] it was 6.00 to 6.70; in assay [6] it was at least 6.70.
In the case of `C=CC(=O)N1C2CCCC1CC(Oc1cc3c(Nc4ccc(Cl)c(Cl)c4F)ncnc3cc1OC)C2` (stereo not drawn) [Compound 176, 1-(3-((4-((3,4-dichloro-2-fluorophenyl)amino)-7-methoxyquinazolin-6-yl)oxy)-9-azabicyclo[3.3.1]nonan-9-yl)prop-2-en-1-one], the pEC50 in assay [1], in assay [2], in assay [3], in assay [4], in assay [5] and in assay [6] was at least 6.70 in each case.
For `C=CC(=O)N1C2CCC1CC(Oc1cc3c(Nc4ccc(Cl)c(Cl)c4F)ncnc3cc1OC)C2` (stereo not drawn) [Compound 177, 1-(3-((4-((3,4-dichloro-2-fluorophenyl)amino)-7-methoxyquinazolin-6-yl)oxy)-8-azabicyclo[3.2.1]octan-8-yl)prop-2-en-1-one], the pEC50 in assay [1], in assay [2], in assay [3], in assay [4], in assay [5] and in assay [6] was at least 6.70 throughout.
On to `C=CC(=O)N1C2CCCC1CC(Oc1cc3c(Nc4cccc5ccccc45)ncnc3cc1OC)C2` (stereo not drawn) [Compound 178, 1-(3-((7-methoxy-4-(naphthalen-1-ylamino)quinazolin-6-yl)oxy)-9-azabicyclo[3.3.1]nonan-9-yl)prop-2-en-1-one], for which the pEC50 in assay [1] was at least 6.70; in assay [2], at least 6.70; in assay [3] it was at least 6.70; in assay [4], 6.00 to 6.70; in assay [5], at least 6.70; in assay [6], at least 6.70.
In the case of `C=CC(=O)N1C2CCCC1CC(Oc1cc3c(Nc4ccc5ccccc5c4)ncnc3cc1OC)C2` (stereo not drawn) [Compound 179, 1-(3-((7-methoxy-4-(naphthalen-2-ylamino)quinazolin-6-yl)oxy)-9-azabicyclo[3.3.1]nonan-9-yl)prop-2-en-1-one], the pEC50 in assay [1] was at least 6.70; in assay [2] it was at least 6.70; in assay [3] it was at least 6.70; in assay [4] it was 6.00 to 6.70; in assay [5], at least 6.70; in assay [6], at least 6.70.
In the case of `C=CC(=O)N1C2CCC1CC(Oc1cc3c(Nc4ccc5ccccc5c4)ncnc3cc1OC)C2` (stereo not drawn) [Compound 180, 1-(3-((7-methoxy-4-(naphthalen-2-ylamino)quinazolin-6-yl)oxy)-8-azabicyclo[3.2.1]octan-8-yl)prop-2-en-1-one], the pEC50 in assay [1], in assay [2], in assay [3], in assay [4], in assay [5] and in assay [6] was at least 6.70 throughout.
Consider `C=CC(=O)N1C2CCC1CC(Oc1cc3c(Nc4cccc5ccccc45)ncnc3cc1OC)C2` (stereo not drawn) [Compound 181, 1-(3-((7-methoxy-4-(naphthalen-1-ylamino)quinazolin-6-yl)oxy)-8-azabicyclo[3.2.1]octan-8-yl)prop-2-en-1-one], for which the pEC50 in assay [1], in assay [2], in assay [3], in assay [4], in assay [5] and in assay [6] was at least 6.70 throughout.
With `C=CC(=O)N1C2CCCC1CC(Oc1cc3c(Nc4cccc5c4CCC5)ncnc3cc1OC)C2` (stereo not drawn) [Compound 182, 1-(3-((4-((2,3-dihydro-1H-inden-4-yl)amino)-7-methoxyquinazolin-6-yl)oxy)-9-azabicyclo[3.3.1]nonan-9-yl)prop-2-en-1-one], the pEC50 in assay [1] is below 6.00; in assay [2], 6.00 to 6.70; in assay [3], 6.00 to 6.70; in assay [4] it was below 6.00; in assay [5], 6.00 to 6.70; in assay [6] it was at least 6.70.

Source of the values: patent US20250243171A1, “QUINAZOLINE COMPOUNDS FOR TREATMENT OF DISEASE” (Arthrosi Therapeutics, Inc., priority 2021, published 2025).
